Drawing on patent US12012403B2, “Aryl sulfonyl compounds as CCR6 inhibitors” (CHEMOCENTRYX, INC., priority 2021, dated 2024), this text covers IC50 for 51 molecules.

Each structure is given as a SMILES string.

This test has as its target T1, human CCR6 (Homo sapiens, UniProt P51684).
T1 construct: expressed in transfected cells; host or cells: Ba/F3 cells (murine pro-B line), hCCR6-transfected, CMV promoter, sodium butyrate induction
T1 sequence (P51684 1-374): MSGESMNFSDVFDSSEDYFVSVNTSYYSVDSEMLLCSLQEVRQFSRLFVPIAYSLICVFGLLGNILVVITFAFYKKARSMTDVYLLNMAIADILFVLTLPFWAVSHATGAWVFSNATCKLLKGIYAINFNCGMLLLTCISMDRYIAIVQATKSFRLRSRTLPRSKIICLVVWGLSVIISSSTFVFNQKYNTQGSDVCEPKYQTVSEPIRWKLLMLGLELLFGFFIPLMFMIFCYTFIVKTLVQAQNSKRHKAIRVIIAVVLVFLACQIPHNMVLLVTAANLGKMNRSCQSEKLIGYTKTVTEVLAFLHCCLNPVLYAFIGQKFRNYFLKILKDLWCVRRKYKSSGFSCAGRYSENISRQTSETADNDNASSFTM
Kind of test: Migration (chemotaxis) assay, hCCR6-transfected Ba/F3 cells toward CCL20. The test is classed as cell-based. The following applies: hCCR6-transfected Ba/F3 cells in human serum; recombinant human CCL20 10 nM; 37° C. 45 minutes; read-out: Potency (IC50 value in the migration assay). From the text: A chemotaxis assay can be used to determine the efficacy of potential receptor antagonists at blocking the migration mediated through chemokine receptors, such as CCR6. This assay is routinely performed using the ChemoTX® microchamber system with a 5-μm pore-sized polycarbonate membrane. Chemokine receptor-expressing cells are required for such an assay. In this case, Ba/F3 cells (Palacios et al., Nature, 309:126, 1984) transfected with the gene for human CCR6 under control of the CMV promotor were used. To begin such an assay, hCCR6-transfected Ba/F3 cells are first grown for 24 hr in medium supplemented with sodium butyrate, which increases CCR6 transcription via the CMV promotor. The prepared Ba/F3 cells, are collected by centrifugation at 400×g at room temperature, then suspended at 4 million/ml in human serum. The compound being tested is serially diluted from a maximum final concentration of 10 μM (or an equivalent volume of its solvent (DMSO)) and is then added to the cell/serum mixture. Separately, recombinant human CCL20 (MIP-3α/LARC) at its EC50 concentration (10 nM) is placed in the lower wells of the ChemoTX® plate. The 5-μm (pore size) polycarbonate membrane is placed onto the plate, and 20 μL of the cell/compound mixture is transferred onto each well of the membrane. The plates are incubated at 37° C. for 45 minutes, after which the polycarbonate membranes are removed and 5 μl of the DNA-intercalating dye CyQUANT (Invitrogen, Carlsbad, CA) is added to the lower wells. The amount of fluorescence, corresponding to the number of migrated cells, is measured using a Spectrafluor Plus plate reader (TECAN, San Jose, CA).
`O=c1[nH]c2ccc(-c3ccc(S(=O)(=O)N4CCC(Nc5ccc(C(F)(F)F)cn5)CC4)cc3)cc2o1` [Example 1.097]: the IC50 is under 5 nM.

Consider `NC(=O)c1cc2cc(-c3ccc(S(=O)(=O)N4CCC(Nc5ccc(C(F)(F)F)cn5)CC4)cc3)ccc2[nH]1` [Example 1.098], for which the IC50 is 5 to 100 nM.

`N#Cc1c(N)[nH]c2ccc(-c3ccc(S(=O)(=O)N4CCC(Nc5ccc(C(F)(F)F)cn5)CC4)cc3)cc12` [Example 1.099]: the IC50 was under 5 nM.

For the molecule `N#Cc1c[nH]c2cc(-c3ccc(S(=O)(=O)N4CCC(Nc5ccc(C(F)(F)F)cn5)CC4)cc3)ccc12` [Example 1.101], the IC50 is 5 to 100 nM.

On to `NC(=O)N1CCc2nc(-c3ccc(S(=O)(=O)N4CCC(Nc5ccc(C(F)(F)F)cn5)CC4)cc3)sc2C1` [Example 1.102], for which the IC50 fell in the range of 100 to 10000 nM.

In the case of `N#Cc1c[nH]c2ccc(-c3ccc([S@](=N)(=O)N4CCC(Nc5ccc(C(F)(F)F)cn5)CC4)cc3)cc12` [Example 1.103], the IC50 was 5 to 100 nM.

Consider `N=[S@](=O)(c1ccc(-c2ccc3[nH]cnc3c2)cc1)N1CCC(Nc2ccc(C(F)(F)F)cc2)CC1` [Example 1.104], for which the IC50 lay within 5 to 100 nM.

As for `N=[S@](=O)(c1ccc(-c2ccc3oc(N)nc3c2)cc1)N1CCC(Nc2ccc(C(F)(F)F)cc2)CC1` [Example 1.105], the IC50 lay in the range of 5 to 100 nM.

Regarding `O=S(=O)(c1ccc(-c2nc3c(s2)CNCC3)cc1)N1CCC(Nc2ccc(C(F)(F)F)cn2)CC1` [Example 1.106], the IC50 lay within 100 to 10000 nM.

Consider `Nc1nc2cc(-c3ccc(S(=O)(=O)N4CCC(Nc5ccc(C(F)(F)F)cn5)CC4)cc3)ccc2[nH]1` [Example 1.107], for which the IC50 is 5 to 100 nM.

Take `O=S(=O)(c1ccc(-c2ccc3[nH]nnc3c2)cc1)N1CCC(Nc2ccc(C(F)(F)F)cn2)CC1` [Example 1.109]: the IC50 fell in the range of 100 to 10000 nM.

On to `O=S(=O)(c1ccc(-c2ccc3[nH]cnc3c2)cc1)N1CCC(Nc2ccc(C(F)(F)F)cn2)CC1` [Example 1.110], for which the IC50 was under 5 nM.

Consider `Nc1n[nH]c2ccc(-c3ccc(S(=O)(=O)N4CCC(Nc5ccc(C(F)(F)F)cn5)CC4)cc3)cc12` [Example 1.112], for which the IC50 is under 5 nM.

With `N#Cc1cc2cc(-c3ccc(S(=O)(=O)N4CCC(Nc5ccc(C(F)(F)F)cn5)CC4)cc3)ccc2[nH]1` [Example 1.113], the IC50 is 5 to 100 nM.

On to `N#Cc1c[nH]c2ccc(-c3ccc(S(=O)(=O)N4CCC(Nc5ccc(C(F)(F)F)cn5)CC4)cc3)cc12` [Example 1.114], for which the IC50 was under 5 nM.

As to `O=c1[nH]c2ccc(-c3ccc(S(=O)(=O)N4CCC(Nc5ccc(C(F)(F)F)cn5)CC4)cc3)cc2[nH]1` [Example 1.115], the IC50 fell in the range of 5 to 100 nM.

With `N=[S@](=O)(c1ccc(-c2ccc3oc(N)nc3c2)cc1)N1CCC(Nc2ccc(C(F)(F)F)cn2)CC1` [Example 1.116], the IC50 lay within 5 to 100 nM.

As for `O=C1NCc2cc(-c3ccc(S(=O)(=O)N4CCC(Nc5ccc(C(F)(F)F)cn5)CC4)cc3)ccc21` [Example 1.117], the IC50 is under 5 nM.

`Nc1nc2cc(-c3ccc(S(=O)(=O)N4CCC(Nc5ccc(C(F)(F)F)cn5)CC4)cc3)ccc2o1` [Example 1.118]: the IC50 is under 5 nM.

On to `O=S(=O)(c1ccc(-c2ccc3[nH]ccc3c2)cc1)N1CCC(Nc2ccc(C(F)(F)F)cn2)CC1` [Example 1.119], for which the IC50 is 100 to 10000 nM.

Regarding `O=S(=O)(c1ccc(-c2ccc3c(c2)CCC3)cc1)N1CCC(Nc2ccc(C(F)(F)F)cn2)CC1` [Example 1.120], the IC50 is 100 to 10000 nM.

`NC(=O)C1CC2(C1)CN(c1ccc(S(=O)(=O)N3CCC(Nc4ccc(C(F)(F)F)cn4)CC3)cc1)C2` [Example 1.121]: the IC50 is 5 to 100 nM.

Consider `NC(=O)CN1CCN(c2ccc(S(=O)(=O)N3CCC(Nc4ccc(C(F)(F)F)cn4)CC3)cc2)CC1` [Example 1.122], for which the IC50 lay within 5 to 100 nM.

Turning to `CC(C)(C(N)=O)C1CCN(c2ccc(S(=O)(=O)N3CCC(Nc4ccc(C(F)(F)F)cn4)CC3)cc2)CC1` [Example 1.123], the IC50 was in the range of 5 to 100 nM.

For `NC(=O)C1(C2CCN(c3ccc(S(=O)(=O)N4CCC(Nc5ccc(C(F)(F)F)cn5)CC4)cc3)CC2)CC1` [Example 1.124], the IC50 lay in the range of 5 to 100 nM.

As for `NC(=O)NCCC1CCN(c2ccc(S(=O)(=O)N3CCC(Nc4ccc(C(F)(F)F)cn4)CC3)cc2)CC1` [Example 1.125], the IC50 fell in the range of 5 to 100 nM.

In the case of `CC(=O)NCCC1CCN(c2ccc(S(=O)(=O)N3CCC(Nc4ccc(C(F)(F)F)cn4)CC3)cc2)CC1` [Example 1.126], the IC50 was 5 to 100 nM.

Turning to `CS(=O)(=O)NCCC1CCN(c2ccc(S(=O)(=O)N3CCC(Nc4ccc(C(F)(F)F)cn4)CC3)cc2)CC1` [Example 1.127], the IC50 lay within 5 to 100 nM.

Regarding `O=S(=O)(c1ccc(N2CCC(c3nnn[nH]3)CC2)cc1)N1CCC(Nc2ccc(C(F)(F)F)cn2)CC1` [Example 1.128], the IC50 is 100 to 10000 nM.

In the case of `O=S(=O)(c1ccc(N2CCOCC2)cc1)N1CCC(Nc2ccc(C(F)(F)F)cn2)CC1` [Example 1.129], the IC50 was 5 to 100 nM.

On to `O=S(=O)(c1ccc(N2CCC(c3cnc[nH]3)CC2)cc1)N1CCC(Nc2ccc(C(F)(F)F)cn2)CC1` [Example 1.130], for which the IC50 was 100 to 10000 nM.

As for `O=S(=O)(c1ccc(N2CCC(Cc3ncc[nH]3)CC2)cc1)N1CCC(Nc2ccc(C(F)(F)F)cn2)CC1` [Example 1.131], the IC50 fell in the range of 100 to 10000 nM.

Take `NCCC1CCN(c2ccc(S(=O)(=O)N3CCC(Nc4ccc(C(F)(F)F)cn4)CC3)cc2)CC1` [Example 1.132]: the IC50 fell in the range of 100 to 10000 nM.

For `O=C(CC1CCN(c2ccc(S(=O)(=O)N3CCC(Nc4ccc(C(F)(F)F)cn4)CC3)cc2)CC1)NCCO` [Example 1.133], the IC50 fell in the range of 100 to 10000 nM.

Take `CN(C)C(=O)CC1CCN(c2ccc(S(=O)(=O)N3CCC(Nc4ccc(C(F)(F)F)cn4)CC3)cc2)CC1` [Example 1.134]: the IC50 was in the range of 100 to 10000 nM.

For `CNC(=O)CC1CCN(c2ccc(S(=O)(=O)N3CCC(Nc4ccc(C(F)(F)F)cn4)CC3)cc2)CC1` [Example 1.135], the IC50 was in the range of 5 to 100 nM.

As for `CC1(CC(N)=O)CCN(c2ccc(S(=O)(=O)N3CCC(Nc4ccc(C(F)(F)F)cn4)CC3)cc2)CC1` [Example 1.136], the IC50 fell in the range of 5 to 100 nM.

Take `NC(=O)C1CC12CCN(c1ccc(S(=O)(=O)N3CCC(Nc4ccc(C(F)(F)F)cn4)CC3)cc1)CC2` (stereo not drawn) [Example 1.137]: the IC50 lay within 100 to 10000 nM.

Turning to `NC(=O)CC1CCCN(c2ccc(S(=O)(=O)N3CCC(Nc4ccc(C(F)(F)F)cn4)CC3)cc2)C1` (stereo not drawn) [Example 1.138], the IC50 is 100 to 10000 nM.

On to `O=C1CNC(=O)C2(CCN(c3ccc(S(=O)(=O)N4CCC(Nc5ccc(C(F)(F)F)cn5)CC4)cc3)CC2)N1` [Example 1.139], for which the IC50 lay within 100 to 10000 nM.

For `CC(=O)NCC1CCN(c2ccc(S(=O)(=O)N3CCC(Nc4ccc(C(F)(F)F)cn4)CC3)cc2)CC1` [Example 1.140], the IC50 was in the range of 5 to 100 nM.

Consider `CS(=O)(=O)NCC1CCN(c2ccc(S(=O)(=O)N3CCC(Nc4ccc(C(F)(F)F)cn4)CC3)cc2)CC1` [Example 1.141], for which the IC50 lay in the range of 5 to 100 nM.

Regarding `NC(=O)N1CCC12CN(c1ccc(S(=O)(=O)N3CCC(Nc4ccc(C(F)(F)F)cn4)CC3)cc1)C2` [Example 1.142], the IC50 fell in the range of 5 to 100 nM.

`CC(C)(C)OC(=O)NCC1CN(c2ccc(S(=O)(=O)N3CCC(Nc4ccc(C(F)(F)F)cn4)CC3)cc2)C1` [Example 1.143]: the IC50 lay in the range of 5 to 100 nM.

As for `NC(=O)CC1CN(c2ccc(S(=O)(=O)N3CCC(Nc4ccc(C(F)(F)F)cn4)CC3)cc2)C1` [Example 1.144], the IC50 is 100 to 10000 nM.

Take `NC(=O)N1CC(C2CN(c3ccc(S(=O)(=O)N4CCC(Nc5ccc(C(F)(F)F)cn5)CC4)cc3)C2)C1` [Example 1.145]: the IC50 was in the range of 5 to 100 nM.

For the molecule `NC(=O)NCC1CCN(c2ccc(S(=O)(=O)N3CCC(Nc4ccc(C(F)(F)F)cn4)CC3)cc2)CC1` [Example 1.146], the IC50 is under 5 nM.

Regarding `O=C1COC2(CCN(c3ccc(S(=O)(=O)N4CCC(Nc5ccc(C(F)(F)F)cn5)CC4)cc3)CC2)CN1` [Example 1.147], the IC50 is 5 to 100 nM.

As to `O=C1NC2(CCN(c3ccc(S(=O)(=O)N4CCC(Nc5ccc(C(F)(F)F)cn5)CC4)cc3)CC2)CO1` [Example 1.148], the IC50 is under 5 nM.

Consider `O=C1CC2(CCN(c3ccc(S(=O)(=O)N4CCC(Nc5ccc(C(F)(F)F)cn5)CC4)cc3)CC2)C(=O)N1` [Example 1.149], for which the IC50 was 5 to 100 nM.

As for `O=C1NCC2(CCN(c3ccc(S(=O)(=O)N4CCC(Nc5ccc(C(F)(F)F)cn5)CC4)cc3)CC2)N1` [Example 1.150], the IC50 is 5 to 100 nM.
